What was measured:
Assay in all cases: KinaseProfiler enzyme profiling
[1] = molecular target: T1, Aurora-A(h) (Homo sapiens, UniProt O14965); format: biochemical
T1 construct: purchased Eurofins KinaseProfiler
Method in brief: (§1)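 Single-point in vitro screen: erianin 100 nM, 70-kinase panel, n = 2.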

[2] = molecular target: T2, Aurora-B(h) (Homo sapiens, UniProt Q96GD4); format: biochemical
T2 construct: purchased Eurofins KinaseProfiler
Method in brief: as §1

[3] = molecular target: T3, BRK(h) (Homo sapiens, UniProt Q13882); format: biochemical
T3 construct: purchased Eurofins KinaseProfiler
Method in brief: as §1

[4] = molecular target: T4, Bmx(h) (Homo sapiens, UniProt P51813); format: biochemical
T4 construct: purchased Eurofins KinaseProfiler
Method in brief: as §1

[5] = molecular target: T5, CDK5/p35(h) (Homo sapiens, UniProt Q00535); format: biochemical
T5 construct: purchased Eurofins KinaseProfiler
Method in brief: as §1

[6] = molecular target: T6, CK2(h) (Homo sapiens, UniProt P68400); format: biochemical
T6 construct: purchased Eurofins KinaseProfiler
T6 sequence (P68400 whole entry): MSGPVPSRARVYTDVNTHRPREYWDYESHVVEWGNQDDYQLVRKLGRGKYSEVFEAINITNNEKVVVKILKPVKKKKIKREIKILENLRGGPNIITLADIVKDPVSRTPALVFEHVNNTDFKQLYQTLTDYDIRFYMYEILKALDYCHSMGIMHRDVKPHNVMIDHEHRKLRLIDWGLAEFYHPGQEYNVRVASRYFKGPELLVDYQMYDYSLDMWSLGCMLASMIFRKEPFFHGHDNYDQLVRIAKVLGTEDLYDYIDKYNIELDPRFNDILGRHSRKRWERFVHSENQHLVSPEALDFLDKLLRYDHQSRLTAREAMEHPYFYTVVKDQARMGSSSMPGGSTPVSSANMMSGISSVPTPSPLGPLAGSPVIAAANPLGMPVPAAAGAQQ
T6 sequence (P67870 whole entry partner): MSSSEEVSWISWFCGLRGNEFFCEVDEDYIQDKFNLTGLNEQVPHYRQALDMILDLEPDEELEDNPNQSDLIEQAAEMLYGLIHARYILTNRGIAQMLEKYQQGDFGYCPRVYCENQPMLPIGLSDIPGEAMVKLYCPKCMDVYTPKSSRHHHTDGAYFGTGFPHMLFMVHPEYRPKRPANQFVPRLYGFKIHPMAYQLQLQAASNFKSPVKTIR
Method in brief: as §1

[7] = molecular target: T7, DAPK1(h) (Homo sapiens, UniProt P53355); format: biochemical
T7 construct: purchased Eurofins KinaseProfiler
T7 sequence (P53355 whole entry): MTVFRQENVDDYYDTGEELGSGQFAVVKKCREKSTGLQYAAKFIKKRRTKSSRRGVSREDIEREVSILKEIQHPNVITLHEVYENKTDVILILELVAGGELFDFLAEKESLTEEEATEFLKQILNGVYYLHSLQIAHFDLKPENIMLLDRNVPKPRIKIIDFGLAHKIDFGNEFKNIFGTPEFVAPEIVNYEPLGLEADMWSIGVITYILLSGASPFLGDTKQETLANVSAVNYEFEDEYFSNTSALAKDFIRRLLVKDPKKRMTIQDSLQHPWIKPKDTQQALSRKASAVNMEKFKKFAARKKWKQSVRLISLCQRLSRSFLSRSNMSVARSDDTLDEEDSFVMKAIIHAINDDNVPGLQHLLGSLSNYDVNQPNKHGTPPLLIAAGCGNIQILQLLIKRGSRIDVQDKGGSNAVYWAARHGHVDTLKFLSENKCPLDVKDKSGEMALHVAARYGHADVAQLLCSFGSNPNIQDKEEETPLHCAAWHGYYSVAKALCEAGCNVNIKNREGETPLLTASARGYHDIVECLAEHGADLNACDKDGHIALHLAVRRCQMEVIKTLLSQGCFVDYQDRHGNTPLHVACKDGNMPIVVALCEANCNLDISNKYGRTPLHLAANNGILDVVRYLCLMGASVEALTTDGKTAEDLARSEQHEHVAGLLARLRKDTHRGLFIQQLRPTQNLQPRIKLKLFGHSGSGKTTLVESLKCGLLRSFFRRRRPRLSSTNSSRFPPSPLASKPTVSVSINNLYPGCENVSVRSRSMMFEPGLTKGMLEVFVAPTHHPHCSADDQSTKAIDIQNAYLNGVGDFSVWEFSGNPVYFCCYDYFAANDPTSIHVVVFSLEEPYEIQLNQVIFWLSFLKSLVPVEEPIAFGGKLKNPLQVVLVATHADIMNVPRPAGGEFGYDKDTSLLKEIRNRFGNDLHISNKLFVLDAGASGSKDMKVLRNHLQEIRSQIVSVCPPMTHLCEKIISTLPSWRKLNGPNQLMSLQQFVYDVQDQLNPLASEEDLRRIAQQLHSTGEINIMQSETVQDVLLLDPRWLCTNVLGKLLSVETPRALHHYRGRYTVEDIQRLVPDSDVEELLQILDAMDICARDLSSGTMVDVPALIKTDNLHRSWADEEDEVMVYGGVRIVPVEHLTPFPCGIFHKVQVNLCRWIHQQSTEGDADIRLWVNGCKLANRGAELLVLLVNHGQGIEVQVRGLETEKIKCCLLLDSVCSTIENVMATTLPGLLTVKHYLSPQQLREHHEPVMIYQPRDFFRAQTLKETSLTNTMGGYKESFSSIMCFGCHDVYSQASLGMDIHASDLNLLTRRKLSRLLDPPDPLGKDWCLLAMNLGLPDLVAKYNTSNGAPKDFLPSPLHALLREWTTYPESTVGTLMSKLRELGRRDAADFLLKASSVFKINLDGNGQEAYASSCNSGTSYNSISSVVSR
Method in brief: as §1

[8] = molecular target: T8, DYRK2(h) (Homo sapiens, UniProt Q92630); format: biochemical
T8 construct: purchased Eurofins KinaseProfiler
Method in brief: as §1

[9] = molecular target: T9, EGFR(T790M)(h) (Homo sapiens, UniProt P00533, T790M); format: biochemical
T9 construct: purchased Eurofins KinaseProfiler
Method in brief: as §1

[10] = molecular target: T10, EphA2(h) (Homo sapiens, UniProt P29317); format: biochemical
T10 construct: purchased Eurofins KinaseProfiler
Method in brief: as §1

[11] = molecular target: T11, EphB2(h) (Homo sapiens, UniProt P29323); format: biochemical
T11 construct: purchased Eurofins KinaseProfiler
Method in brief: as §1

[12] = molecular target: T12, FGFR3(h) (Homo sapiens, UniProt P22607); format: biochemical
T12 construct: purchased Eurofins KinaseProfiler
Method in brief: as §1

[13] = molecular target: T13, HIPK2(h) (Homo sapiens, UniProt Q9H2X6); format: biochemical
T13 construct: purchased Eurofins KinaseProfiler
Method in brief: as §1

[14] = molecular target: T14, HIPK3(h) (Homo sapiens, UniProt Q9H422); format: biochemical
T14 construct: purchased Eurofins KinaseProfiler
Method in brief: as §1

[15] = molecular target: T15, MELK(h) (Homo sapiens, UniProt Q14680); format: biochemical
T15 construct: purchased Eurofins KinaseProfiler
T15 sequence (Q14680 whole entry): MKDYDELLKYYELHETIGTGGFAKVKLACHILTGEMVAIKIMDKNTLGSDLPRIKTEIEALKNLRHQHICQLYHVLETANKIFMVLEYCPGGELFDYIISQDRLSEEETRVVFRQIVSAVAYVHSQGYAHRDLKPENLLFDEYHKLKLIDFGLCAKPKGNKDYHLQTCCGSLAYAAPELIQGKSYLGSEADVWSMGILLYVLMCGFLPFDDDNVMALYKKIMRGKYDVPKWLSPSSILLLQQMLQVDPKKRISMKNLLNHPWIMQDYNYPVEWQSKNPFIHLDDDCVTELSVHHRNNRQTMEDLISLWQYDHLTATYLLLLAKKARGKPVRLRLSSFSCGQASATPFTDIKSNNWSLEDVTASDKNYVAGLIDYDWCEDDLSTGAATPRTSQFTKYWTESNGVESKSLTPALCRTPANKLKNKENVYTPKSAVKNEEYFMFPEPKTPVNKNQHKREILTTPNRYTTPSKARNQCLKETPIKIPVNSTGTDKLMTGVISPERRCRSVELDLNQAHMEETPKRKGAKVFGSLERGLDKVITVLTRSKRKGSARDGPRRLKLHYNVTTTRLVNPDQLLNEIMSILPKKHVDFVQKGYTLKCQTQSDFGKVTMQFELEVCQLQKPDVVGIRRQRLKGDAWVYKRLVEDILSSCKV
Method in brief: as §1

[16] = molecular target: T16, MKK6(h) (Homo sapiens, UniProt P52564); format: biochemical
T16 construct: purchased Eurofins KinaseProfiler
T16 sequence (P52564 whole entry): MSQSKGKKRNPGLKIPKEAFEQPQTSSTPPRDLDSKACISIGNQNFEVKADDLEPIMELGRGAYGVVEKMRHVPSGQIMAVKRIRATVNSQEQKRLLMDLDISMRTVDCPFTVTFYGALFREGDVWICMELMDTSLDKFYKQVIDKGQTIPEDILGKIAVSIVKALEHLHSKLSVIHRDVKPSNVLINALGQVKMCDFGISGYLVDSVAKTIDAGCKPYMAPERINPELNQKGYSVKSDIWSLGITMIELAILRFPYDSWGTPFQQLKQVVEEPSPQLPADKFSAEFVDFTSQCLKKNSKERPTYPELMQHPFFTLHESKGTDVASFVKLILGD
Method in brief: as §1

[17] = molecular target: T17, MKK7β(h) (Homo sapiens, UniProt O14733); format: biochemical
T17 construct: purchased Eurofins KinaseProfiler
Method in brief: as §1

[18] = molecular target: T18, Mer(h) (Homo sapiens, UniProt Q12866); format: biochemical
T18 construct: purchased Eurofins KinaseProfiler
Method in brief: as §1

[19] = molecular target: T19, NIM1(h) (Homo sapiens, UniProt Q8IY84); format: biochemical
T19 construct: purchased Eurofins KinaseProfiler
Method in brief: as §1

[20] = molecular target: T20, cKit(h) (Homo sapiens, UniProt P10721); format: biochemical
T20 construct: purchased Eurofins KinaseProfiler
Method in brief: as §1

[21] = tested on: CK1(y); format: biochemical, yeast; settings: 10 µM
Source text: Enzyme profiling services were provided by KinaseProfiler™ (Eurofin, Brussels, Belgium). […] For more details, refer to the manufacturer’s instructions (www.eurofinsdiscoveryservices.com).

[22] = molecular target: T21, A-Raf(h) (Homo sapiens, UniProt P10398); format: biochemical; settings: 100 nM
T21 construct: purchased Eurofins KinaseProfiler
Method in brief: as §1

[23] = molecular target: T22, EphA5(h) (Homo sapiens, UniProt P54756); format: biochemical; settings: 100 nM
T22 construct: purchased Eurofins KinaseProfiler
Method in brief: as §1

[24] = molecular target: T23, EphB1(h) (Homo sapiens, UniProt P54762); format: biochemical; settings: 100 nM
T23 construct: purchased Eurofins KinaseProfiler
Method in brief: as §1

[25] = molecular target: T24, EphB3(h) (Homo sapiens, UniProt P54753); format: biochemical; settings: 100 nM
T24 construct: purchased Eurofins KinaseProfiler
Method in brief: as §1

[26] = molecular target: T25, Flt1(h) (Homo sapiens, UniProt P17948); format: biochemical; settings: 100 nM
T25 construct: purchased Eurofins KinaseProfiler
Method in brief: as §1

[27] = molecular target: T26, Pim-2(h) (Homo sapiens, UniProt Q9P1W9); format: biochemical; settings: 100 nM
T26 construct: purchased Eurofins KinaseProfiler
Method in brief: as §1

[28] = molecular target: T27, Pim-3(h) (Homo sapiens, UniProt Q86V86); format: biochemical; settings: 100 nM
T27 construct: purchased Eurofins KinaseProfiler
Method in brief: as §1

[29] = molecular target: T28, Snk(h) (Homo sapiens, UniProt Q9NYY3); format: biochemical; settings: 100 nM
T28 construct: purchased Eurofins KinaseProfiler
Method in brief: as §1

[30] = molecular target: T29, CDK12/cyclinK(h) (Homo sapiens, UniProt Q9NYV4); format: biochemical
T29 construct: purchased Eurofins KinaseProfiler
Method in brief: as §1

[31] = molecular target: T30, CDK7/cyclinH/MAT1(h) (Homo sapiens, UniProt P50613); format: biochemical
T30 construct: purchased Eurofins KinaseProfiler
Method in brief: as §1

[32] = molecular target: T31, ErbB4(h) (Homo sapiens, UniProt Q15303); format: biochemical
T31 construct: purchased Eurofins KinaseProfiler
Method in brief: as §1

[33] = molecular target: T32, Lck(h) (Homo sapiens, UniProt P06239); format: biochemical
T32 construct: purchased Eurofins KinaseProfiler
Method in brief: as §1

[34] = molecular target: T33, MST1(h) (Homo sapiens, UniProt Q13043); format: biochemical
T33 construct: purchased Eurofins KinaseProfiler
T33 sequence (Q13043 whole entry): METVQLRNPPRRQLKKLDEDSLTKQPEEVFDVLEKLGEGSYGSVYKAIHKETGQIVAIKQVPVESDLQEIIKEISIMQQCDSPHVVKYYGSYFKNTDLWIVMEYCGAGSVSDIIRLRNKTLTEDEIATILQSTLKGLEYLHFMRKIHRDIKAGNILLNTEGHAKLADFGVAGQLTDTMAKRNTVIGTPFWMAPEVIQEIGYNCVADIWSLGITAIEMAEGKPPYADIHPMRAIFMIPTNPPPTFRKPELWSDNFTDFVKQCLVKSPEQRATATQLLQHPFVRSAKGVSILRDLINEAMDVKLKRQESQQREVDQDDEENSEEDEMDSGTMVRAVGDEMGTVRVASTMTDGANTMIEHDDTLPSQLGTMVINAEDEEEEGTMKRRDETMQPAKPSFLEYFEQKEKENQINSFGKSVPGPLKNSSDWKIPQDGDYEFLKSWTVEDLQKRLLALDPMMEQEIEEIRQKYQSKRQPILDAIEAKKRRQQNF
Method in brief: as §1

[35] = molecular target: T34, MST4(h) (Homo sapiens, UniProt Q9P289); format: biochemical
T34 construct: purchased Eurofins KinaseProfiler
T34 sequence (Q9P289 whole entry): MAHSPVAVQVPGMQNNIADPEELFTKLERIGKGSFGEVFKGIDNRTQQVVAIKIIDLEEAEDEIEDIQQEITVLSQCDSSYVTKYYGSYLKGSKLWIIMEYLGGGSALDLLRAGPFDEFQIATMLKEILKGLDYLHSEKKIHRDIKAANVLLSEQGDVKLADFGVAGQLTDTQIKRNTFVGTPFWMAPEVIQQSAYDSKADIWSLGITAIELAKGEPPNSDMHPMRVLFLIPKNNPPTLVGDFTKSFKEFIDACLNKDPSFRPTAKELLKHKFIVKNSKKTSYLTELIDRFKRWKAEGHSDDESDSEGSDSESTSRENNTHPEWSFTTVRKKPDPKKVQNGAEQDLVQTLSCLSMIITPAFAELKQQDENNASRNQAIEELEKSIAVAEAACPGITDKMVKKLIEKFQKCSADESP
Method in brief: as §1

[36] = molecular target: T35, NEK6(h) (Homo sapiens, UniProt Q9HC98); format: biochemical
T35 construct: purchased Eurofins KinaseProfiler
T35 sequence (Q9HC98 whole entry): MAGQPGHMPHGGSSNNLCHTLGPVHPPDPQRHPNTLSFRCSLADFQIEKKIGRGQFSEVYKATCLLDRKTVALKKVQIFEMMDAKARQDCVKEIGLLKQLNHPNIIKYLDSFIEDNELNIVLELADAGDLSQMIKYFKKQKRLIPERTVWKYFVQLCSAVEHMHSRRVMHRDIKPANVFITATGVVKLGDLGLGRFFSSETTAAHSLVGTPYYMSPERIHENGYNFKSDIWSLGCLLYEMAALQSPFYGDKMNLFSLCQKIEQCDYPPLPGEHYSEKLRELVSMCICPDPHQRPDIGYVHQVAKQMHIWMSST
Method in brief: as §1

[37] = molecular target: T36, SAPK2a(h) (Homo sapiens, UniProt Q16539); format: biochemical
T36 construct: purchased Eurofins KinaseProfiler
Method in brief: as §1

[38] = molecular target: T37, SAPK2b(h) (Homo sapiens, UniProt Q15759); format: biochemical
T37 construct: purchased Eurofins KinaseProfiler
Method in brief: as §1

[39] = molecular target: T38, TAO3(h) (Homo sapiens, UniProt Q9H2K8); format: biochemical
T38 construct: purchased Eurofins KinaseProfiler
Method in brief: as §1

T1 sequence (O14965 whole entry): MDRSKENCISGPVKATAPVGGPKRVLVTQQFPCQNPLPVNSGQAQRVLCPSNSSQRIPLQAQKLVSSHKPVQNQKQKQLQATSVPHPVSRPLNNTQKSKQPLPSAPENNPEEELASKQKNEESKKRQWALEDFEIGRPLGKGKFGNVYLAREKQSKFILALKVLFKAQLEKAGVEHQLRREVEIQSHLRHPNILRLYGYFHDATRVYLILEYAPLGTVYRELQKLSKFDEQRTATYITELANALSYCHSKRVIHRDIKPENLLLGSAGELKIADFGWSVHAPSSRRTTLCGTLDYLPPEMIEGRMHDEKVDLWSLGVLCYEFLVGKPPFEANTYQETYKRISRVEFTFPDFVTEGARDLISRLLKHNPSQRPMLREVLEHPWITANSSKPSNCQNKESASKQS

## COc1cc2oc(-c3ccc(O)c(O)c3)cc(=O)c2c(O)c1OC [Cirsiliol]
[1]
  activity at 10 µM: 124%
[2]
  activity at 10 µM: 86%
[3]
  activity at 10 µM: 105%
[4]
  activity at 10 µM: 89%
[5]
  activity at 10 µM: 99%
[6]
  activity at 10 µM: 84%
[7]
  activity at 10 µM: 103%
[8]
  activity at 10 µM: 97%
[9]
  activity at 10 µM: 117%
[10]
  activity at 10 µM: 97%
[11]
  activity at 10 µM: 98%
[12]
  activity at 10 µM: 98%
[13]
  activity at 10 µM: 100%
[14]
  activity at 10 µM: 106%
[15]
  activity at 10 µM: 100%
[16]
  activity at 10 µM: 112%
[17]
  activity at 10 µM: 95%
[18]
  activity at 10 µM: 109%
[19]
  activity at 10 µM: 121%
[20]
  activity at 10 µM: 93%
[21]
  Activity %: 95%

## COc1ccc(CCc2cc(OC)c(OC)c(OC)c2)cc1O [Erianin]
[22]
  activity at 0.1 µM: 109%
[23]
  activity at 0.1 µM: 108%
[24]
  activity at 0.1 µM: 91%
[25]
  activity at 0.1 µM: 95%
[26]
  activity at 0.1 µM: 117%
[27]
  activity at 0.1 µM: 103%
[28]
  activity at 0.1 µM: 91%
[29]
  activity at 0.1 µM: 109%

## C=C1C(=O)[C@]23[C@H](O)[C@H]1CC[C@H]2[C@@]12CO[C@]3(O)[C@@H](O)[C@@H]1C(C)(C)CC[C@@H]2O [Oridonin]
[30]
  activity at 10 µM: 98%
[31]
  activity at 10 µM: 69%
[32]
  activity at 10 µM: 91%
[33]
  activity at 10 µM: 89%
[34]
  activity at 10 µM: 65%
[35]
  activity at 10 µM: 140%
[36]
  activity at 10 µM: 99%
[37]
  activity at 10 µM: 141%
[38]
  activity at 10 µM: 102%
[39]
  activity at 10 µM: 66%

Source: publication PMC9986241 (Signal Transduction and Targeted Therapy, 2023)
